Assay results reported in patent US20220096516A1, “OLIGONUCLEOTIDE MOLECULE AND APPLICATION THEREOF IN TUMOR THERAPY” (Ractigen Therapeutics, priority 2019, published 2022).
d = 2'-deoxy (DNA); r = 2'-OH (RNA)

Test system: LHPP gene
Assay: High-throughput screening of saRNAs targeting LHPP promoter: LHPP mRNA by one-step RT-qPCR in Huh7 cells
Type: cell-based, human
Conditions: 10 nM saRNA, 72 hours, relative to control (Mock)
How it was run: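 Huh7 cells were transfected with 10 nM saRNA using RNAiMax and lysed 72 h later. LHPP mRNA was quantified by one-step RT-qPCR in triplicate wells. Expression was normalised to HPRT1 and TBP and given as fold change versus mock-transfected cells.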

| Substance | Fold of changes in relative LHPP mRNA expression level [fold] | Fold of changes in relative LHPP mRNA expression level (log2) |
| --- | --- | --- |
| RAG7-852: saRNA duplex; sense ACUUGAAAGGUUCCGAGGGTT (SEQ ID NO: 128), antisense CCCUCGGAACCUUUCAAGUTT (SEQ ID NO: 292) (sugars from the 5' end r19 d2, backbone not given here) | 1.17 | 0.22 |
| RAG7-179: saRNA duplex; sense CAAUUUGCCUUUGACCUUUTT (SEQ ID NO: 39), antisense AAAGGUCAAAGGCAAAUUGTT (SEQ ID NO: 203) (sugars from the 5' end r19 d2, backbone not given here) | 1.45 | 0.53 |
| RAG7-44: saRNA duplex; sense CCAGUUCCGGGUUUGCACCTT (SEQ ID NO: 121), antisense GGUGCAAACCCGGAACUGGTT (SEQ ID NO: 285) (sugars from the 5' end r19 d2, backbone not given here) | 1.18 | 0.24 |
| RAG7-93: saRNA duplex; sense AAGGACACCGUUUCAGGGGTT (SEQ ID NO: 144), antisense CCCCUGAAACGGUGUCCUUTT (SEQ ID NO: 308) (sugars from the 5' end r19 d2, backbone not given here) | 1.14 | 0.19 |
| RAG7-853: saRNA duplex; sense AACUUGAAAGGUUCCGAGGTT (SEQ ID NO: 146), antisense CCUCGGAACCUUUCAAGUUTT (SEQ ID NO: 310) (sugars from the 5' end r19 d2, backbone not given here) | 1.14 | 0.18 |
| RAG7-190: saRNA duplex; sense CCUUCUUGUCUCAAUUUGCTT (SEQ ID NO: 130), antisense GCAAAUUGAGACAAGAAGGTT (SEQ ID NO: 294) (sugars from the 5' end r19 d2, backbone not given here) | 1.16 | 0.22 |
| RAG7-147: saRNA duplex; sense UUUCUGCUUUUCCUGCUCUTT (SEQ ID NO: 66), antisense AGAGCAGGAAAAGCAGAAATT (SEQ ID NO: 230) (sugars from the 5' end r19 d2, backbone not given here) | 1.31 | 0.39 |
| RAG7-162: saRNA duplex; sense UUCUUAGGGACUUGUUUUCTT (SEQ ID NO: 19), antisense GAAAACAAGUCCCUAAGAATT (SEQ ID NO: 183) (sugars from the 5' end r19 d2, backbone not given here) | 1.56 | 0.64 |
| RAG7-114: saRNA duplex; sense CCUGGGAAGAAAGCUUCCGTT (SEQ ID NO: 73), antisense CGGAAGCUUUCUUCCCAGGTT (SEQ ID NO: 237) (sugars from the 5' end r19 d2, backbone not given here) | 1.28 | 0.36 |
| RAG7-908: saRNA duplex; sense UGAAAGCUCAAAGCUAUGUTT (SEQ ID NO: 31), antisense ACAUAGCUUUGAGCUUUCATT (SEQ ID NO: 195) (sugars from the 5' end r19 d2, backbone not given here) | 1.49 | 0.57 |
| RAG7-879: saRNA duplex; sense GUAAAGUGUUCUCGUUUCUTT (SEQ ID NO: 40), antisense AGAAACGAGAACACUUUACTT (SEQ ID NO: 204) (sugars from the 5' end r19 d2, backbone not given here) | 1.44 | 0.53 |
| RAG7-183: saRNA duplex; sense GUCUCAAUUUGCCUUUGACTT (SEQ ID NO: 27), antisense GUCAAAGGCAAAUUGAGACTT (SEQ ID NO: 191) (sugars from the 5' end r19 d2, backbone not given here) | 1.51 | 0.59 |
| RAG7-684: saRNA duplex; sense CAUCCUCAUCUAUGCAGGGTT (SEQ ID NO: 47), antisense CCCUGCAUAGAUGAGGAUGTT (SEQ ID NO: 211) (sugars from the 5' end r19 d2, backbone not given here) | 1.39 | 0.47 |
| RAG7-160: saRNA duplex; sense CUUAGGGACUUGUUUUCUGTT (SEQ ID NO: 153), antisense CAGAAAACAAGUCCCUAAGTT (SEQ ID NO: 317) (sugars from the 5' end r19 d2, backbone not given here) | 1.11 | 0.15 |
| RAG7-698: saRNA duplex; sense GCCCAGGUCCUAUGCAUCCTT (SEQ ID NO: 118), antisense GGAUGCAUAGGACCUGGGCTT (SEQ ID NO: 282) (sugars from the 5' end r19 d2, backbone not given here) | 1.18 | 0.24 |
| RAG7-130: saRNA duplex; sense CUUUGUCCGCUGAUCUCCUTT (SEQ ID NO: 77), antisense AGGAGAUCAGCGGACAAAGTT (SEQ ID NO: 241) (sugars from the 5' end r19 d2, backbone not given here) | 1.28 | 0.36 |
| RAG7-123: saRNA duplex; sense CGCUGAUCUCCUGGGAAGATT (SEQ ID NO: 68), antisense UCUUCCCAGGAGAUCAGCGTT (SEQ ID NO: 232) (sugars from the 5' end r19 d2, backbone not given here) | 1.30 | 0.38 |
| RAG7-35: saRNA duplex; sense GGUUUGCACCCGGUCUUCUTT (SEQ ID NO: 24), antisense AGAAGACCGGGUGCAAACCTT (SEQ ID NO: 188) (sugars from the 5' end r19 d2, backbone not given here) | 1.53 | 0.61 |
| RAG7-829: saRNA duplex; sense UUGAGGAAACUCCUCCCUUTT (SEQ ID NO: 29), antisense AAGGGAGGAGUUUCCUCAATT (SEQ ID NO: 193) (sugars from the 5' end r19 d2, backbone not given here) | 1.50 | 0.59 |
| RAG7-89: saRNA duplex; sense ACACCGUUUCAGGGGCGAGTT (SEQ ID NO: 104), antisense CUCGCCCCUGAAACGGUGUTT (SEQ ID NO: 268) (sugars from the 5' end r19 d2, backbone not given here) | 1.21 | 0.28 |
| RAG7-722: saRNA duplex; sense UGUGAUAGUCCCGUUUUCUTT (SEQ ID NO: 135), antisense AGAAAACGGGACUAUCACATT (SEQ ID NO: 299) (sugars from the 5' end r19 d2, backbone not given here) | 1.15 | 0.21 |
| RAG7-132: saRNA duplex; sense CUCUUUGUCCGCUGAUCUCTT (SEQ ID NO: 4), antisense GAGAUCAGCGGACAAAGAGTT (SEQ ID NO: 168) (sugars from the 5' end r19 d2, backbone not given here) | 1.86 | 0.90 |
| RAG7-702: saRNA duplex; sense CUCAGCCCAGGUCCUAUGCTT (SEQ ID NO: 140), antisense GCAUAGGACCUGGGCUGAGTT (SEQ ID NO: 304) (sugars from the 5' end r19 d2, backbone not given here) | 1.14 | 0.19 |
| RAG7-776: saRNA duplex; sense UAGCAUCGAGUGGUAUUUUTT (SEQ ID NO: 56), antisense AAAAUACCACUCGAUGCUATT (SEQ ID NO: 220) (sugars from the 5' end r19 d2, backbone not given here) | 1.35 | 0.44 |
| RAG7-899: saRNA duplex; sense AAAGCUAUGUUGGACCAGATT (SEQ ID NO: 84), antisense UCUGGUCCAACAUAGCUUUTT (SEQ ID NO: 248) (sugars from the 5' end r19 d2, backbone not given here) | 1.26 | 0.33 |
